How the values were obtained:
rat [1] = details: Multigenerational reproductive toxicity study, sprague dawley, Oral, Feed, dose end: 2 generation
rat [2] = details: Combined chronic toxicity/carcinogenicity, sprague dawley, Oral, Feed, dose end: 31 month, group: systemic
rat [3] = details: Prenatal developmental toxicity study, sprague dawley, Oral, Gavage/Intubation, dose end: 15 GD
primate = details: Subchronic oral toxicity in nonrodent, rhesus, Feed, dose end: 6 month, group: systemic, systemic / organ weight / thyroid gland / absolute
mouse = details: Carcinogenicity, cd1, Oral, Feed, dose end: 78 week, group: systemic
dog = details: Chronic toxicity; beagle; Oral; Feed; dose end: 12 month; group: systemic; systemic / hematology / anemia / anemia - hemolytic + systemic / hematology / erythrocyte (rbc) count differential / erythrocyte (rbc) + …
[4] = group: offspring, systemic / organ weight / liver / nos
[5] = group: parental, systemic / organ weight / testes / nos
[6] = group: reproductive, reproductive / reproductive performance / precoital interval / precoital interval
[7] = group: developmental, developmental / developmental malformation / bone / bent + developmental / developmental malformation / bone / incomplete ossification + …
[8] = group: maternal, reproductive / reproductive performance / postimplantation loss / postimplantation loss + reproductive / reproductive performance / …
[9] = left thyroid + systemic / clinical chemistry / [other] / [other] + systemic / in life …
[10] = systemic / clinical chemistry / thyroxine (t4) / thyroxine (t4), total
[11] = systemic / pathology microscopic / liver / adenoma + systemic / pathology microscopic / lung / adenoma + systemic / clinical chemistry / …

S=C([S-])NCCNC(=S)[S-].[Mn+2] [Maneb] was tested, and the LOAEL (rat [1]; group: offspring, developmental / developmental landmark / vaginal opening / vaginal opening) was 106 mg/kg/day, the NOAEL (rat [1]; group: offspring, developmental / developmental landmark / vaginal opening / vaginal opening + systemic / in life observation / body weight / offspring (pup) …) was 25.1 mg/kg/day and the LEL (rat [1]; [4]) was 5.8 mg/kg/day. The NEL (rat [1]; [4]) was < 5.8 mg/kg/day, the LOAEL (rat [1]; group: parental, systemic / organ weight / lung / nos) was 21.2 mg/kg/day and the NOAEL (rat [1]; group: parental, systemic / organ weight / lung / nos + systemic / in life observation / body weight / body weight + systemic / in life observation / body …) was 5.3 mg/kg/day. The LEL (rat [1]; [5]) was 5.3 mg/kg/day, the NEL (rat [1]; [5]) was < 5.3 mg/kg/day and the LEL (rat [1]; [6]) was 106 mg/kg/day. For the same compound, the LOAEL (rat [1]; [6]) was > 106 mg/kg/day, the NEL (rat [1]; [6]) was 25.1 mg/kg/day and the NOAEL (rat [1]; [6]) was ≥ 106 mg/kg/day. For the same compound, the LEL (rat [2]; systemic / organ weight / adrenal gland / absolute) was 21.8 mg/kg/day, the NEL (rat [2]; systemic / organ weight / adrenal gland / absolute + systemic / pathology microscopic / pituitary gland / adenoma + systemic / pathology …) was 7.32 mg/kg/day and the LOAEL (rat [2]; systemic / pathology microscopic / urinary bladder / dysplasia + systemic / clinical chemistry / [other] / [other] + systemic / clinical …) was 68.4 mg/kg/day. The NOAEL (rat [2]; systemic / pathology microscopic / urinary bladder / dysplasia + systemic / pathology microscopic / skeletal muscle / sarcoma + systemic / …) was 20.4 mg/kg/day, the LEL (rat [3]; [7]) was 500 mg/kg/day and the LOAEL (rat [3]; [7]) was > 500 mg/kg/day. The NEL (rat [3]; [7]) was 100 mg/kg/day, the NOAEL (rat [3]; [7]) was ≥ 500 mg/kg/day and the LEL (rat [3]; [8]) was 100 mg/kg/day. The LOAEL (rat [3]; [8]) was 100 mg/kg/day, the NEL (rat [3]; [8]) was 20 mg/kg/day and the NOAEL (rat [3]; [8]) was 20 mg/kg/day. For the same compound, the LEL (primate; left thyroid) was 15.5 mg/kg/day, the LOAEL (primate; left thyroid) was 15.5 mg/kg/day and the NEL (primate; [9]) was 5.2 mg/kg/day. For the same compound, the NOAEL (primate; [9]) was 5.2 mg/kg/day, the LEL (mouse; [10]) was 10.8 mg/kg/day and the NEL (mouse; [10]) was < 10.8 mg/kg/day. The LOAEL (mouse; [11]) was > 355 mg/kg/day, the NOAEL (mouse; [11]) was ≥ 355 mg/kg/day and the LEL (dog) was 7.18 mg/kg/day. For the same compound, the LOAEL (dog) was 33.8 mg/kg/day, the NEL (dog) was 1.71 mg/kg/day and the NOAEL (dog) was 6.36 mg/kg/day.
